Data as given in ChEMBL document CHEMBL1147761, “Novel 1,3-dipropyl-8-(1-heteroarylmethyl-1H-pyrazol-4-yl)-xanthine derivatives as high affinity and selective A2B adenosine receptor antagonists” (Bioorg Med Chem Lett, 2006).

What was measured:
[1] = molecular target: Adenosine receptors; A1 & A2b (Homo sapiens) (UniProt P30542+P29275); assay: Selectivity of adenosine A1 receptor over adenosine A2B receptor; type: protein assay
[2] = molecular target: Adenosine A2 receptor (Homo sapiens) (UniProt P29275+P29274); assay: Selectivity of adenosine A2A receptor over adenosine A2B receptor; type: protein assay
Adenosine A2 receptor (Homo sapiens), sequence (P29274 whole entry, looked up, one chain of several): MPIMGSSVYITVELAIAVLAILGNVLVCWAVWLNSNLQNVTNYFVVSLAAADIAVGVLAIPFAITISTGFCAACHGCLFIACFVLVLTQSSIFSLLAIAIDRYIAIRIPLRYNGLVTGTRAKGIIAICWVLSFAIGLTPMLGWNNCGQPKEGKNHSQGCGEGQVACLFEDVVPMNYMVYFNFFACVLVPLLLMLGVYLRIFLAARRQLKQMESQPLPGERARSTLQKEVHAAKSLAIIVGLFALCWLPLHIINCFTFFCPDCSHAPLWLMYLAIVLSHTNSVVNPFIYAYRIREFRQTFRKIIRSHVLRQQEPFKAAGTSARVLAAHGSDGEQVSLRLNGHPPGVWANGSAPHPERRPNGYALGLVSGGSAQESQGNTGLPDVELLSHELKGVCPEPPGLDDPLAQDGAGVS

[3] = molecular target: Adenosine receptors; A2b & A3 (Homo sapiens) (UniProt P29275+P0DMS8); assay: Selectivity of adenosine A3 receptor over adenosine A2B receptor; type: protein assay
Adenosine receptor A2b = molecular target: T1, Adenosine receptor A2b (Homo sapiens, UniProt P29275); assay: Displacement of [3H]ZM-241385 from Adenosine A2B receptor expressed in HEK cells; type: cell-based, HEK293
T1 sequence (P29275 whole entry): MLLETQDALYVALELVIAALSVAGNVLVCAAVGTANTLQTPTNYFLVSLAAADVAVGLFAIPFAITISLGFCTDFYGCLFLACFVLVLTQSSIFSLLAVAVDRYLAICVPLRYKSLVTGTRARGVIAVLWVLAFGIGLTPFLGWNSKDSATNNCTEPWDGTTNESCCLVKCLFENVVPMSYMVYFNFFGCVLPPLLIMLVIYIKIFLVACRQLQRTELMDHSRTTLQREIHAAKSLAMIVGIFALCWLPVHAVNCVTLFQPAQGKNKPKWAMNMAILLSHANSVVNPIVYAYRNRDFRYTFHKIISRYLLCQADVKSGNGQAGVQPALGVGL

Adenosine receptor A1 = molecular target: T2, Adenosine receptor A1 (Homo sapiens, UniProt P30542); assay: Displacement of [3H]CPX from Adenosine A1 receptor expressed in CHO cells; type: cell-based
T2 sequence (P30542 whole entry): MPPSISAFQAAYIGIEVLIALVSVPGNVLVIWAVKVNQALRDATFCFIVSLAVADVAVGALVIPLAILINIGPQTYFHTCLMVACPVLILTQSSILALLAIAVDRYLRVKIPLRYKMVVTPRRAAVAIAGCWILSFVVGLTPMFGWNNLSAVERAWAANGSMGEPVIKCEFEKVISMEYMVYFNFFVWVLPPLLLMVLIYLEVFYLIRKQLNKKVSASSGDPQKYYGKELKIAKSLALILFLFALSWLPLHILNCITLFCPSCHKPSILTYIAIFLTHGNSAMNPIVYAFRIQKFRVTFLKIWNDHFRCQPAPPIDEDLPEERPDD

Adenosine receptor A2a = Adenosine receptor A2a (Homo sapiens, UniProt P29274); assay: Displacement of [3H]ZM-241385 from Adenosine A2A receptor expressed in HEK cells; type: cell-based, HEK293
Adenosine receptor A2a, sequence (P29274 whole entry): as the sequence (P29274 whole entry, looked up, one chain of several) above

Adenosine receptor A3 = molecular target: T3, Adenosine receptor A3 (Homo sapiens, UniProt P0DMS8); assay: Displacement of [125I]AB-MECA from Adenosine A3 receptor expressed in CHO cells; type: cell-based
T3 sequence (P0DMS8 whole entry): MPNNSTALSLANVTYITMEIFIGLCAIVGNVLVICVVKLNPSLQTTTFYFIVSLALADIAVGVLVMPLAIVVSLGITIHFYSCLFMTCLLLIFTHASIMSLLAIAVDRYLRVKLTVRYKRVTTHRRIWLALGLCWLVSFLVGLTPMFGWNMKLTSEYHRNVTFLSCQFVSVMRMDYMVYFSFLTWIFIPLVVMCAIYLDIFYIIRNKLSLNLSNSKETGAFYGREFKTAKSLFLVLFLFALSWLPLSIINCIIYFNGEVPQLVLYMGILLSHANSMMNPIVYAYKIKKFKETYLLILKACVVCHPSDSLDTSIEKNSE

SMILES	Ratio Ki [1]	Ratio Ki [2]	Ratio Ki [3]	Ki (Adenosine receptor A2b)	Ki (Adenosine receptor A1)	Ki (Adenosine receptor A2a)	Ki (Adenosine receptor A3)
CCCn1c(=O)c2nc(-c3cnn(Cc4noc(-c5ccccc5Cl)n4)c3)[nH]c2n(CCC)c1=O	16	65	9	–	–	–	–
CCCn1c(=O)c2[nH]c(-c3cnn(Cc4nc(-c5cccc(OC)c5)no4)c3)nc2n(CCC)c1=O	–	–	–	82 nM	2200 nM	> 5000 nM	600 nM
CCCn1c(=O)c2nc(-c3cnn(Cc4nc(-c5ccccc5Cl)no4)c3)[nH]c2n(CCC)c1=O	130	130	25	19 nM	2500 nM	2500 nM	490 nM
CCCn1c(=O)c2nc(-c3cnn(Cc4nc(-c5ccc(C(F)(F)F)cc5)no4)c3)[nH]c2n(CCC)c1=O	60	> 90	23	–	–	–	–
CCCn1c(=O)c2[nH]c(-c3cnn(Cc4noc(-c5cccc(OC)c5)n4)c3)nc2n(CCC)c1=O	–	–	–	136 nM	810 nM	> 5000 nM	2000 nM
CCCn1c(=O)c2[nH]c(-c3cnn(Cc4cc(-c5ccccc5Cl)on4)c3)nc2n(CCC)c1=O	–	–	–	111 nM	> 6000 nM	2700 nM	2300 nM
CCCn1c(=O)c2nc(-c3cnn(Cc4nc(-c5cccc(C)c5)no4)c3)[nH]c2n(CCC)c1=O	11	> 39	8	–	–	–	–
CCCn1c(=O)c2[nH]c(-c3cnn(Cc4noc(-c5cccc(C(F)(F)F)c5)n4)c3)nc2n(CCC)c1=O	–	–	–	64 nM	> 6000 nM	> 5000 nM	1800 nM
CCCn1c(=O)c2nc(-c3cnn(Cc4nc(-c5ccc(C)cc5)no4)c3)[nH]c2n(CCC)c1=O	48	55	160	–	–	–	–
CCCn1c(=O)c2[nH]c(-c3cnn(Cc4nc(-c5ccccc5OC)no4)c3)nc2n(CCC)c1=O	–	–	–	82 nM	1900 nM	1600 nM	410 nM
CCCn1c(=O)c2nc(-c3cnn(Cc4noc(-c5ccc(Cl)cc5)n4)c3)[nH]c2n(CCC)c1=O	74	> 128	> 213	39 nM	2900 nM	> 5000 nM	> 8300 nM
CCCn1c(=O)c2nc(-c3cnn(Cc4cc(-c5ccc(OC)cc5)on4)c3)[nH]c2n(CCC)c1=O	31	> 79	48	–	–	–	–
CCCn1c(=O)c2nc(-c3cnn(Cc4noc(-c5ccccc5C(F)(F)F)n4)c3)[nH]c2n(CCC)c1=O	19	> 50	6	–	–	–	–
CCCn1c(=O)c2nc(-c3cnn(Cc4noc(-c5cccc(C(F)(F)F)c5)n4)c3)[nH]c2n(CCC)c1=O	> 93	> 78	27	–	–	–	–
CCCn1c(=O)c2nc(-c3cnn(Cc4noc(-c5ccc(C(F)(F)F)cc5)n4)c3)[nH]c2n(CCC)c1=O	> 285	> 238	61	21 nM	> 6000 nM	> 5000 nM	1300 nM
CCCn1c(=O)c2nc(-c3cnn(Cc4cc(-c5ccc(C(F)(F)F)cc5)on4)c3)[nH]c2n(CCC)c1=O	48	35	25	–	–	–	–
CCCn1c(=O)c2nc(-c3cnn(Cc4cc(-c5ccc(Cl)cc5)on4)c3)[nH]c2n(CCC)c1=O	6	14	40	–	–	–	–
CCCn1c(=O)c2nc(-c3cnn(Cc4cc(-c5ccccc5Cl)on4)c3)[nH]c2n(CCC)c1=O	> 54	24	20	–	–	–	–
CCCn1c(=O)c2nc(-c3cnn(Cc4noc(-c5ccc(C#N)cc5)n4)c3)[nH]c2n(CCC)c1=O	40	> 357	45	–	–	–	–
CCCn1c(=O)c2[nH]c(-c3cnn(Cc4noc(-c5ccccc5C(F)(F)F)n4)c3)nc2n(CCC)c1=O	–	–	–	100 nM	1900 nM	> 5000 nM	620 nM
CCCn1c(=O)c2nc(-c3cnn(Cc4cc(-c5cccc(Cl)c5)on4)c3)[nH]c2n(CCC)c1=O	28	> 30	27	163 nM	4600 nM	> 5000 nM	4400 nM

SMILES	Ratio Ki [1]	Ratio Ki [2]	Ratio Ki [3]	Ki (Adenosine receptor A2b)	Ki (Adenosine receptor A1)	Ki (Adenosine receptor A2a)	Ki (Adenosine receptor A3)
CCCn1c(=O)c2[nH]c(-c3cnn(Cc4cc(-c5ccc(Cl)cc5)on4)c3)nc2n(CCC)c1=O	–	–	–	82 nM	540 nM	1200 nM	3300 nM
CCCn1c(=O)c2[nH]c(-c3cnn(Cc4cc(-c5ccc(C(F)(F)F)cc5)on4)c3)nc2n(CCC)c1=O	–	–	–	48 nM	2300 nM	1700 nM	1200 nM
CCCn1c(=O)c2nc(-c3cnn(Cc4nc(-c5cccc(Cl)c5)no4)c3)[nH]c2n(CCC)c1=O	20	> 156	15	–	–	–	–
CCCn1c(=O)c2[nH]c(-c3cnn(CC(=O)Nc4ccccc4Cl)c3)nc2n(CCC)c1=O	–	–	–	22 nM	102 nM	1500 nM	1200 nM
CCCn1c(=O)c2[nH]c(-c3cnn(Cc4noc(-c5ccccc5Cl)n4)c3)nc2n(CCC)c1=O	–	–	–	38 nM	630 nM	2500 nM	330 nM
CCCn1c(=O)c2[nH]c(-c3cnn(Cc4noc(-c5ccc(C#N)cc5)n4)c3)nc2n(CCC)c1=O	–	–	–	14 nM	570 nM	> 5000 nM	640 nM
CCCn1c(=O)c2nc(-c3cnn(Cc4nc(-c5cccc(C(F)(F)F)c5)no4)c3)[nH]c2n(CCC)c1=O	83	> 119	22	42 nM	3500 nM	> 5000 nM	960 nM
CCCn1c(=O)c2nc(-c3cnn(Cc4cc(-c5ccccc5OC)on4)c3)[nH]c2n(CCC)c1=O	16	> 25	24	–	–	–	–
CCCn1c(=O)c2[nH]c(-c3cnn(Cc4nc(-c5ccc(C#N)cc5)no4)c3)nc2n(CCC)c1=O	–	–	–	18 nM	1300 nM	> 5000 nM	950 nM
CCCn1c(=O)c2nc(-c3cnn(Cc4nc(-c5ccccc5OC)no4)c3)[nH]c2n(CCC)c1=O	23	19	5	–	–	–	–
CCCn1c(=O)c2[nH]c(-c3cnn(Cc4nc(-c5cccc(Cl)c5)no4)c3)nc2n(CCC)c1=O	–	–	–	32 nM	652 nM	> 5000 nM	490 nM
CCCn1c(=O)c2[nH]c(-c3cnn(Cc4nc(-c5ccc(C(F)(F)F)cc5)no4)c3)nc2n(CCC)c1=O	–	–	–	55 nM	3300 nM	> 5000 nM	1300 nM
CCCn1c(=O)c2[nH]c(-c3cnn(Cc4nc(-c5cccc(C)c5)no4)c3)nc2n(CCC)c1=O	–	–	–	128 nM	1400 nM	> 5000 nM	970 nM
CCCn1c(=O)c2nc(-c3cnn(Cc4nc(-c5ccc(C#N)cc5)no4)c3)[nH]c2n(CCC)c1=O	70	> 277	53	–	–	–	–
CCCn1c(=O)c2[nH]c(-c3cnn(Cc4nc(-c5ccc(C)cc5)no4)c3)nc2n(CCC)c1=O	–	–	–	54 nM	2600 nM	3000 nM	8700 nM
CCCn1c(=O)c2[nH]c(-c3cnn(Cc4cc(-c5ccccc5OC)on4)c3)nc2n(CCC)c1=O	–	–	–	195 nM	3300 nM	> 5000 nM	4900 nM
CCCn1c(=O)c2nc(-c3cnn(Cc4noc(-c5cccc(OC)c5)n4)c3)[nH]c2n(CCC)c1=O	6	> 37	15	–	–	–	–
CCCn1c(=O)c2nc(-c3cnn(CC(=O)Nc4ccccc4Cl)c3)[nH]c2n(CCC)c1=O	5	68	54	–	–	–	–
CCCn1c(=O)c2[nH]c(-c3cnn(Cc4cc(-c5ccc(OC)cc5)on4)c3)nc2n(CCC)c1=O	–	–	–	63 nM	2000 nM	> 5000 nM	3000 nM
CCCn1c(=O)c2nc(-c3cnn(Cc4nc(-c5cccc(OC)c5)no4)c3)[nH]c2n(CCC)c1=O	26	> 60	7	–	–	–	–
